# Source: patent US10494379B2, “6-oxa-3,9,15-triaza-bicyclo[9.3.1]pentadeca-1(14),11(15),12-triene derivatives based compounds and their application as ligands of essential metal ion based MRI and 52MN based PET contrast agents” (DEBRECENI EGYETEM, priority 2015, dated 2019)
# Assays:
# [1] = literature values, 'under the same conditions'; cited from earlier work
# [2] = cited from earlier work
# [3] = Equilibrium study: stability constants of Mn(II) complexes and calculated pMn; assay type: physicochemical; conditions: 25° C., 0.15M NaCl; for pMn: calculated from equilibrium constants at pH = 7.4 and cMn = cL = 10^−5 M
# Experimental: (§1) During the physico-chemical studies of tOPC2A, tOPC2M^Pyp and tOPC2M^Pro compounds prepared according to Example 1, 2, and 5, their protonation constants, as well as equilibrium behaviour and kinetic inertness of their Mn(II) complexes was studied in detail, and the characteristic relaxivity values of the complexes were determined in the presence and absence of HSA (Human Serum Albumin), at 25 and 37° C. and physiological pH. All studies were performed in the presence of 0.15 M NaCl, the same concentration as that of the electrolyte under physiological conditions.
# (§2) The results of equilibrium study are summarized in Table 1, in addition to the protonation constants, total basicity of ligands and stability constants of their Mn(II) complexes, the pMn value calculated for complexes are also represented in the table.
# Based on the pMn values presented in Table 1 (calculated using the equilibrium constants at pH=7.4 and cMn=cL=10^−5 M), it can be concluded that the studied Mn(II) complexes are formed in 100% at physiological pH, which is an essential aspect of the practical use.
# [4] = Equilibrium study: protonation constants and total basicity of the ligands; assay type: physicochemical; conditions: 25° C., 0.15M NaCl
# Experimental: as §1, §2
logKMnL (stability constant of Mn(II) complex) [3],pMn [3],logK1 (protonation constant) [4],logK2 (protonation constant) [4],logK3 (protonation constant) [4],ΣlogKi^H (total basicity) [4],logK4 (protonation constant) [4],SMILES,r1 (relaxivity) [1],Gd(III) release at 37° C. relative to value calculated from experiments at 25° C. ([2]; 37° C. vs 25° C.),Gd(III) ion released during in vivo dissociation ([2]; 37° C.)
,,,,,,,CNC[C@H](O)[C@@H](O)[C@H](O)[C@H](O)CO.O=C([O-])CN1CCN(CC(=O)[O-])CCN(CC(=O)O)CCN(CC(=O)[O-])CC1.[Gd+3] [DOTAREM],3.83 mM⁻¹ s⁻¹,,
,,,,,,,CNC[C@H](O)[C@@H](O)[C@H](O)[C@H](O)CO.CNC[C@H](O)[C@@H](O)[C@H](O)[C@H](O)CO.O=C([O-])CN(CCN(CC(=O)[O-])CC(=O)O)CCN(CC(=O)[O-])CC(=O)O.[Gd+3] [MAGNEVIST],4.02 mM⁻¹ s⁻¹,4.4 fold,2.2%
13.03(1),8.59,7.73(2),7.66(1),2.13(1),17.52,,"O=C(O)CN1CCOCCN(CC(=O)O)Cc2cccc(n2)C1 [tOPC2A, 4-oxo-1,7-diaza-2,6-pyridinophane-diacetate]",,,
10.03(1),7.37,7.37(3),5.14(4),3.26(4),18.17,2.40(4),O=C(O)C1CCCN1C(=O)CN1CCOCCN(CC(=O)N2CCCC2C(=O)O)Cc2cccc(n2)C1 (stereo not shown) [tOPC2AM^Pro],,,
10.84(4),7.60,7.91(2),5.51(3),,13.42,,"O=C(CN1CCOCCN(CC(=O)N2CCCCC2)Cc2cccc(n2)C1)N1CCCCC1 [tOPC2AM^Pyp, 3,9-bis[2-oxo-2-(piperidin-1-yl)-ethyl]-6-oxa-3,9,15-triaza-bicyclo[9.3.1]pentadeca-1(14),11(15),12-triene]",,,
